# Source: PubChem BioAssay (NCI)
#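 Test compounds were applied to cells in 96-well plates for 48 hours at 5 doses. GI50 is the concentration that inhibits growth by half. TGI denotes the concentration required for complete inhibition of growth.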
# Experiments:
# Test in all cases: DTP human tumour cell line panel, 48 h
# SW-620 colon = system: SW-620 colon
# OVCAR-8 ovarian = system: OVCAR-8 ovarian
# SK-MEL-2 melanoma = system: SK-MEL-2 melanoma
# KM12 colon = system: KM12 colon
# ACHN renal = system: ACHN renal
# MOLT-4 leukemia = system: MOLT-4 leukemia
# MALME-3M melanoma = system: MALME-3M melanoma
# IGROV1 ovarian = system: IGROV1 ovarian
# LOX IMVI melanoma = system: LOX IMVI melanoma
# HS 578T breast = system: HS 578T breast
# RXF 393 renal = system: RXF 393 renal
# DU-145 prostate = system: DU-145 prostate
# NCI/ADR-RES ovarian = system: NCI/ADR-RES ovarian
# 786-0 renal = system: 786-0 renal
# NCI-H522 lung = system: NCI-H522 lung
# SF-268 CNS = system: SF-268 CNS
# SK-OV-3 ovarian = system: SK-OV-3 ovarian
# CAKI-1 renal = system: CAKI-1 renal
# UACC-257 melanoma = system: UACC-257 melanoma
# HOP-92 NSCLC = system: HOP-92 NSCLC
# SK-MEL-5 melanoma = system: SK-MEL-5 melanoma
# HL-60(TB) leukemia = system: HL-60(TB) leukemia
# SN12C renal = system: SN12C renal
# BT-549 breast = system: BT-549 breast
# RPMI-8226 leukemia = system: RPMI-8226 leukemia
# OVCAR-5 ovarian = system: OVCAR-5 ovarian
# UO-31 renal = system: UO-31 renal
# NCI-H226 lung = system: NCI-H226 lung
# SR leukemia = system: SR leukemia
# UACC-62 melanoma = system: UACC-62 melanoma
# SF-295 CNS = system: SF-295 CNS
# OVCAR-4 ovarian = system: OVCAR-4 ovarian
# PC-3 prostate = system: PC-3 prostate
# SNB-19 CNS = system: SNB-19 CNS
# MDA-MB-231 breast = system: MDA-MB-231 breast
# M14 melanoma = system: M14 melanoma
# SNB-75 CNS = system: SNB-75 CNS
# T-47D breast = system: T-47D breast
# NCI-H23 lung = system: NCI-H23 lung
# HOP-62 NSCLC = system: HOP-62 NSCLC
# HT29 colon = system: HT29 colon
# EKVX NSCLC = system: EKVX NSCLC
# HCC-2998 colon = system: HCC-2998 colon
# SK-MEL-28 melanoma = system: SK-MEL-28 melanoma
# MCF7 breast = system: MCF7 breast
# HCT-116 colon = system: HCT-116 colon
# A549 NSCLC = system: A549 NSCLC
# TK-10 renal = system: TK-10 renal
# COLO 205 colon = system: COLO 205 colon
# U251 CNS = system: U251 CNS
# SF-539 CNS = system: SF-539 CNS
# CCRF-CEM leukemia = system: CCRF-CEM leukemia
# NCI-H460 lung = system: NCI-H460 lung
# HCT-15 colon = system: HCT-15 colon
# A498 renal = system: A498 renal
# MDA-MB-435 = system: MDA-MB-435
# K-562 leukemia = system: K-562 leukemia
smiles,measurement,setting,value
O=C(NNc1nc2cc(F)c(F)cc2n2c(CN3CC4CNCC4C3)ccc12)c1cnccn1 (centres undefined),GI50,SW-620 colon,1.17 µM
same,TGI,SW-620 colon,15.2 µM
same,GI50,OVCAR-8 ovarian,0.547 µM
same,TGI,OVCAR-8 ovarian,7.83 µM
same,GI50,SK-MEL-2 melanoma,1.89 µM
same,TGI,SK-MEL-2 melanoma,11.4 µM
same,GI50,KM12 colon,0.74 µM
same,TGI,KM12 colon,12.7 µM
same,GI50,ACHN renal,0.429 µM
same,TGI,ACHN renal,7.82 µM
same,GI50,MOLT-4 leukemia,0.764 µM
same,TGI,MOLT-4 leukemia,13.6 µM
same,GI50,MALME-3M melanoma,1.75 µM
same,TGI,MALME-3M melanoma,9.7 µM
same,GI50,IGROV1 ovarian,0.904 µM
same,TGI,IGROV1 ovarian,10.8 µM
same,GI50,LOX IMVI melanoma,0.608 µM
same,TGI,LOX IMVI melanoma,6.7 µM
same,GI50,HS 578T breast,3.33 µM
same,TGI,HS 578T breast,20.6 µM
same,GI50,RXF 393 renal,1.27 µM
same,TGI,RXF 393 renal,9.46 µM
same,GI50,DU-145 prostate,1.3 µM
same,TGI,DU-145 prostate,11.8 µM
same,GI50,NCI/ADR-RES ovarian,2.6 µM
same,TGI,NCI/ADR-RES ovarian,14.3 µM
same,GI50,786-0 renal,0.609 µM
same,TGI,786-0 renal,12.4 µM
same,GI50,NCI-H522 lung,2.34 µM
same,TGI,NCI-H522 lung,6.26 µM
same,GI50,SF-268 CNS,0.962 µM
same,TGI,SF-268 CNS,10.8 µM
same,GI50,SK-OV-3 ovarian,0.811 µM
same,TGI,SK-OV-3 ovarian,9.06 µM
same,GI50,CAKI-1 renal,0.415 µM
same,TGI,CAKI-1 renal,9.69 µM
same,GI50,UACC-257 melanoma,2.09 µM
same,TGI,UACC-257 melanoma,7.13 µM
same,GI50,HOP-92 NSCLC,3.01 µM
same,TGI,HOP-92 NSCLC,17.4 µM
same,GI50,SK-MEL-5 melanoma,1.65 µM
same,TGI,SK-MEL-5 melanoma,4.34 µM
same,GI50,HL-60(TB) leukemia,1.15 µM
same,TGI,HL-60(TB) leukemia,4.36 µM
same,GI50,SN12C renal,2.06 µM
same,TGI,SN12C renal,11.4 µM
same,GI50,BT-549 breast,2.42 µM
same,TGI,BT-549 breast,13.8 µM
same,GI50,RPMI-8226 leukemia,1.3 µM
same,TGI,RPMI-8226 leukemia,11.8 µM
same,GI50,OVCAR-5 ovarian,1.75 µM
same,TGI,OVCAR-5 ovarian,16.8 µM
same,GI50,UO-31 renal,0.356 µM
same,TGI,UO-31 renal,3.24 µM
same,GI50,NCI-H226 lung,1.23 µM
same,TGI,NCI-H226 lung,14.5 µM
same,GI50,SR leukemia,0.481 µM
same,TGI,SR leukemia,20.5 µM
same,GI50,UACC-62 melanoma,1.19 µM
same,TGI,UACC-62 melanoma,6.28 µM
same,GI50,SF-295 CNS,0.44 µM
same,TGI,SF-295 CNS,11.2 µM
same,GI50,OVCAR-4 ovarian,0.995 µM
same,TGI,OVCAR-4 ovarian,20.6 µM
same,GI50,PC-3 prostate,1.25 µM
same,TGI,PC-3 prostate,16.1 µM
same,GI50,SNB-19 CNS,2.2 µM
same,TGI,SNB-19 CNS,18.8 µM
same,GI50,MDA-MB-231 breast,3.65 µM
same,TGI,MDA-MB-231 breast,20.6 µM
same,GI50,M14 melanoma,0.611 µM
same,TGI,M14 melanoma,12.3 µM
same,GI50,SNB-75 CNS,2.16 µM
same,TGI,SNB-75 CNS,14.1 µM
same,GI50,T-47D breast,3.3 µM
same,TGI,T-47D breast,22.9 µM
same,GI50,NCI-H23 lung,2.47 µM
same,TGI,NCI-H23 lung,14.3 µM
same,GI50,HOP-62 NSCLC,0.459 µM
same,TGI,HOP-62 NSCLC,5.23 µM
same,GI50,HT29 colon,0.726 µM
same,TGI,HT29 colon,15.2 µM
same,GI50,EKVX NSCLC,0.732 µM
same,TGI,EKVX NSCLC,13.8 µM
same,GI50,HCC-2998 colon,2.74 µM
same,TGI,HCC-2998 colon,16.5 µM
same,GI50,SK-MEL-28 melanoma,2.11 µM
same,TGI,SK-MEL-28 melanoma,14.5 µM
same,GI50,MCF7 breast,1.41 µM
same,TGI,MCF7 breast,12.3 µM
same,GI50,HCT-116 colon,0.588 µM
same,TGI,HCT-116 colon,15.8 µM
same,GI50,A549 NSCLC,0.851 µM
same,TGI,A549 NSCLC,10.6 µM
same,GI50,TK-10 renal,0.455 µM
same,TGI,TK-10 renal,17 µM
same,GI50,COLO 205 colon,0.874 µM
same,TGI,COLO 205 colon,13.8 µM
same,GI50,U251 CNS,0.741 µM
same,TGI,U251 CNS,11.2 µM
same,GI50,SF-539 CNS,1.07 µM
same,TGI,SF-539 CNS,4.42 µM
same,GI50,CCRF-CEM leukemia,0.706 µM
same,TGI,CCRF-CEM leukemia,27.5 µM
same,GI50,NCI-H460 lung,0.463 µM
same,TGI,NCI-H460 lung,4.72 µM
same,GI50,HCT-15 colon,0.363 µM
same,TGI,HCT-15 colon,16.2 µM
same,GI50,A498 renal,0.522 µM
same,TGI,A498 renal,4.22 µM
same,GI50,MDA-MB-435,2.53 µM
same,TGI,MDA-MB-435,16.3 µM
same,GI50,K-562 leukemia,0.785 µM
same,TGI,K-562 leukemia,> 100 µM
